From the NIST ThermoML archive (doi:10.1021/je900091b)

Legend:
[1] = Liquid
[2] = xn = mol fraction of the nth substance listed; conditions: Liquid, x2 = 0

CCCCn1cc[n+](C)c1.F[P-](F)(F)(F)(F)F [1-butyl-3-methylimidazolium hexafluorophosphate]
[1]
Conditions	mass density [kg/m3]	viscosity [mPa·s]
283.15 K	1380.34	802.09
288.15 K	1376.06	552.57
293.15 K	1371.8	389.81
298.15 K	1367.53	282.24
303.15 K	1363.28	209.25
308.15 K	1359.19	159.15
313.15 K	1355.09	123.38
318.15 K	1350.98	97.78
323.15 K	1346.87	78.77
328.15 K	1342.78	61.34
333.15 K	1338.7	50.38
343.15 K	1330.56	35.25
353.15 K	1322.47	25.76

CCCCn1cc[n+](C)c1.F[P-](F)(F)(F)(F)F [1-butyl-3-methylimidazolium hexafluorophosphate] + C=C(C)C(=O)OC
[2]
Conditions	mass density [kg/m3]	viscosity [mPa·s]
283.15 K	1380.34	802.09
288.15 K	1376.06	552.57
293.15 K	1371.8	389.81
298.15 K	1367.53	282.24
303.15 K	1363.28	209.25
308.15 K	1359.19	159.15
313.15 K	1355.09	123.38
318.15 K	1350.98	97.78
323.15 K	1346.87	78.77
328.15 K	1342.78	61.34
333.15 K	1338.7	50.38
343.15 K	1330.56	35.25
353.15 K	1322.47	25.76

C=C(C)C(=O)OC [methyl methacrylate]
[1]
Conditions	mass density [kg/m3]	viscosity [mPa·s]
283.15 K	954.802	0.6808
288.15 K	949.097	0.6337
293.15 K	943.365	0.5899
298.15 K	937.615	0.554
303.15 K	931.837	0.5248
308.15 K	926.032	0.4956
313.15 K	920.185	0.4719
318.15 K	914.317	0.4497
323.15 K	908.405	0.4294
328.15 K	902.468	0.41
333.15 K	896.479	0.3938
343.15 K	884.418	0.3636
353.15 K	872.129	0.3398
